Reference: article PMC11589570, “Critical assessment of LC3/GABARAP ligands used for degrader development and ligandability of LC3/GABARAP binding pockets” (Nature Communications, 2024)
Where “and” joins values, the source holds several entries; their conditions need not be identical. Identical values can stand only once.

Tests used:
LC3A [1] = biological target: T1, LC3A (Homo sapiens, UniProt Q9H492); test: FP assay with Cy5-labelled p62 LIR tracer (protein titration and tracer displacement); format: binding; settings: two replicate columns per compound
LC3B = LC3B (Homo sapiens, UniProt Q9GZQ8); test: as above; format: binding; settings: for normalized FP signal, p62 LIR tracer displacement: LC3B; for compound titration LC3B (displacement curve, FP signal): two replicate columns per compound
LC3A [2] = biological target: T1, LC3A; test: Isothermal titration calorimetry (ITC); format: binding; settings: LC3A
Excerpt: To minimize nonspecific dilution heat effects, DMSO concentrations in the protein and compound samples were matched. […] For this protocol, the chamber was pre-equilibrated with the protein, and the test compounds were titrated while continuously measuring the rate of exothermic heat evolution. The heat of binding was integrated, corrected, and fitted to an independent single-binding site model based on the manufacturer’s instructions, from which thermodynamic parameters (ΔH and TΔS), equilibrium association and dissociation constants (KA and KD, respectively), and stoichiometry (n) were calculated using TA Instruments NanoAnalyze software.

RPE1 cells = test: Cell growth assay (IncuCyte confluence over 72 h); format: cell-based; settings: listed as KT1
Description: Cell growth assay: Cell confluence (phase) from RPE1 (hTERT RPE-1, ATCC CLR_4000) or U2OS (ATCC, HTB-96) cell lines were monitored over time with the IncuCyte S3 (Sartiorius, Germany) in 384-well plates in 50 ul DMEM media, supplemented with 10% Fetal Bovine Serum (FBS) 1% penicillin/Streptomycin and incubated 24 h before treatment. Experiment was performed as described in Cano-Franco et al.. 50 μl of media containing either 2× final concentration of indicated compounds in or control compounds (final conc.: 0.1% DMSO, 250 nM Torin1, 200 ng/mL Bafilomycin) were added and images were taken every two hours over 72 h. Cell confluence is represented as % of area covered by cells. Each data point represents the average ratio or confluence obtained from three individual wells of the plate.

[3] = log10 concentration [M] -3.82391
[4] = log10 concentration [M] -4.1549
[5] = log10 concentration [M] -4.60206
[6] = log10 concentration [M] -5.30103
[7] = log10 concentration [M] -5.69897
[8] = log10 concentration [M] -6.22185
[9] = log10 concentration [M] -6.69897
[10] = log10 concentration [M] -7.30103
[11] = log10 concentration [M] -7.79588
[12] = log10 concentration [M] -8.08092

For Cc1ccc(C)c(S(=O)(=O)Nc2cc(SCC(=O)O)c(O)c3ccccc23)c1 [compound 8], the “compound titration LC3A (displacement curve, FP signal)” value (from here on “compound titration LC3A”) (LC3A [1]; [3]) was 97.6316 and 96.3158, the “compound titration LC3A” value (LC3A [1]; [4]) was 102.368 and 100.263 and the “compound titration LC3A” value (LC3A [1]; [5]) was 93.6842 and 106.579. The “compound titration LC3A” value (LC3A [1]; log10 concentration [M] -5) was 101.842 and 99.2105, the “compound titration LC3A” value (LC3A [1]; [6]) was 105 and 102.368 and the “compound titration LC3A” value (LC3A [1]; [7]) was 101.842 and 94.2105. For the same compound, the “compound titration LC3A” value (LC3A [1]; [8]) was 98.9474 and 95.2632, the “compound titration LC3A” value (LC3A [1]; [9]) was 98.4211 and the “compound titration LC3A” value (LC3A [1]; [10]) was 101.842 and 96.5789. The “compound titration LC3A” value (LC3A [1]; [11]) was 97.8947 and 91.3158, the “compound titration LC3A” value (LC3A [1]; [12]) was 102.105 and 89.4737 and the “normalized FP signal, p62 LIR tracer displacement” value (“normalized FP signal” below) (LC3B; [3]) was 74.4737 and 78.6842. The “normalized FP signal” value (LC3B; [4]) was 94.4737 and 95.2632, the “normalized FP signal” value (LC3B; [5]) was 95 and 102.105 and the “normalized FP signal” value (LC3B; log10 concentration [M] -5) was 92.8947 and 101.053. For the same compound, the “normalized FP signal” value (LC3B; [6]) was 97.1053 and 100, the “normalized FP signal” value (LC3B; [7]) was 93.6842 and 95.5263 and the “normalized FP signal” value (LC3B; [8]) was 100 and 92.1053. For the same compound, the “normalized FP signal” value (LC3B; [9]) was 96.8421 and 99.4737, the “normalized FP signal” value (LC3B; [10]) was 97.8947 and 102.368 and the “normalized FP signal” value (LC3B; [11]) was 96.5789 and 100. For the same compound, the “normalized FP signal” value (LC3B; [12]) was 100.789 and 96.5789, the “compound titration LC3B (displacement curve, FP signal)” value (from here on “compound titration LC3B”) (LC3B; [3]) was 74.4737 and 78.6842 and the “compound titration LC3B” value (LC3B; [4]) was 94.4737 and 95.2632. The “compound titration LC3B” value (LC3B; [5]) was 95 and 102.105, the “compound titration LC3B” value (LC3B; log10 concentration [M] -5) was 92.8947 and 101.053 and the “compound titration LC3B” value (LC3B; [6]) was 97.1053 and 100. The “compound titration LC3B” value (LC3B; [7]) was 93.6842 and 95.5263, the “compound titration LC3B” value (LC3B; [8]) was 100 and 92.1053 and the “compound titration LC3B” value (LC3B; [9]) was 96.8421 and 99.4737. The “compound titration LC3B” value (LC3B; [10]) was 97.8947 and 102.368, the “compound titration LC3B” value (LC3B; [11]) was 96.5789 and 100 and the “compound titration LC3B” value (LC3B; [12]) was 100.789 and 96.5789. For the same compound, the “outcome of ITC titration” value (LC3A [2]) was “induced protein precipitation”, the RPE1 cell growth (RPE1 cells; 100 nM, 0 h) was 18 and 24 and 13 and the RPE1 cell growth (RPE1 cells; 100 nM, 6 h) was 23 and 30 and 15. For the same compound, the RPE1 cell growth (RPE1 cells; 100 nM, 8 h) was 25 and 30 and 16, the RPE1 cell growth (RPE1 cells; 100 nM, 10 h) was 25 and 32 and 17 and the RPE1 cell growth (RPE1 cells; 100 nM, 12 h) was 24 and 34 and 18. The RPE1 cell growth (RPE1 cells; 1 uM, 0 h) was 19 and 20 and 26, the RPE1 cell growth (RPE1 cells; 1 uM, 2 h) was 20 and 28 and the RPE1 cell growth (RPE1 cells; 1 uM, 4 h) was 20 and 25 and 32. The RPE1 cell growth (RPE1 cells; 1 uM, 6 h) was 21 and 26 and 32, the RPE1 cell growth (RPE1 cells; 1 uM, 8 h) was 22 and 29 and 35 and the RPE1 cell growth (RPE1 cells; 1 uM, 10 h) was 25 and 29 and 37. For the same compound, the RPE1 cell growth (RPE1 cells; 1 uM, 12 h) was 27 and 32 and 38, the RPE1 cell growth (RPE1 cells; 1 uM, 14 h) was 29 and the RPE1 cell growth (RPE1 cells; 3 uM, 0 h) was 20 and 28 and 21. For the same compound, the RPE1 cell growth (RPE1 cells; 3 uM, 2 h) was 23 and 30 and 21, the RPE1 cell growth (RPE1 cells; 3 uM, 4 h) was 25 and 34 and 21 and the RPE1 cell growth (RPE1 cells; 3 uM, 6 h) was 25 and 34 and 23. For the same compound, the RPE1 cell growth (RPE1 cells; 3 uM, 8 h) was 29 and 35 and 24, the RPE1 cell growth (RPE1 cells; 3 uM, 10 h) was 29 and 37 and 26 and the RPE1 cell growth (RPE1 cells; 3 uM, 12 h) was 30 and 38 and 28. For the same compound, the RPE1 cell growth (RPE1 cells; 3 uM, 14 h) was 32 and 42 and 30, the RPE1 cell growth (RPE1 cells; 5 uM, 0 h) was 17 and 27 and 20 and the RPE1 cell growth (RPE1 cells; 5 uM, 2 h) was 20 and 30. The RPE1 cell growth (RPE1 cells; 5 uM, 4 h) was 22 and 33 and 21, the RPE1 cell growth (RPE1 cells; 5 uM, 6 h) was 22 and 36 and the RPE1 cell growth (RPE1 cells; 5 uM, 8 h) was 26 and 37 and 23. For the same compound, the RPE1 cell growth (RPE1 cells; 5 uM, 10 h) was 25 and 39, the RPE1 cell growth (RPE1 cells; 5 uM, 12 h) was 28 and 40 and 27 and the RPE1 cell growth (RPE1 cells; 5 uM, 14 h) was 29 and 45. For the same compound, the RPE1 cell growth (RPE1 cells; 10 uM, 0 h) was 17 and 22 and 19, the RPE1 cell growth (RPE1 cells; 10 uM, 2 h) was 20 and 23 and the RPE1 cell growth (RPE1 cells; 10 uM, 4 h) was 23 and 26 and 20. For the same compound, the RPE1 cell growth (RPE1 cells; 10 uM, 6 h) was 24 and 31 and 22, the RPE1 cell growth (RPE1 cells; 10 uM, 8 h) was 25 and 29 and 23 and the RPE1 cell growth (RPE1 cells; 10 uM, 10 h) was 26 and 28 and 25. The RPE1 cell growth (RPE1 cells; 10 uM, 12 h) was 28 and 32 and 27.
